Where two headings read alike, the source gives them in different places.
Legend:
[1] = biological target: T1, rat intestinal α-glucosidase (Rattus norvegicus, UniProt P23739); assay: α-Glucosidase inhibition assay; format: biochemical
T1 construct: rat intestinal α-glucosidase solution; from tissue; host or cells: rat intestine
Procedure: The effect of the isolated compounds on the activity of the α-glucosidase enzyme was evaluated by the method of Olaokun et al.. Firstly, a solution of 2.5 mg of compound in 1 mL of 50% dimethyl sulfoxide was made. A compound solution (100 μL) and sucrose (200 μL of a 56 mM solution) in 0.1 M PO4 buffer (pH 7) were incubated at 37 °C for 5 min. Then 200 μL of rat intestinal α-glucosidase solution was added with vigorous shaking before incubation for 20 min. Thereafter, 750 μL of 2 M Tris-HCl buffer (pH 6.9) was added to the mixture. […] The quantity of glucose released was estimated using the glucose oxidase method, with absorbance recorded at 540 nm. […] (1) %Inhibition=100×∆AControl−∆ASample/∆AControl∆AControl=ATest−ABlank∆ASample=ATest−ABlank

H-4-11-E rat liver cells = assay: Glucose utilization in H-4-11-E liver cells; format: cell-based; settings: 250 µg/mL, 3 h, percentage of untreated control cells ± SEM
Procedure: (§1) The potential of compounds to stimulate cells to utilize glucose was estimated using the method adopted by Olaokun et al.. […] The C2C12 cells were incubated for 4 days, while the H-4-11-E cells were incubated for 2 days at 37 °C in a 5% CO2 incubator. Thereafter, the cells were examined and utilized for the glucose uptake assay. […] The treated cells were incubated for 1 h (C2C12) and 3 h (H-4-11-E). The positive control was insulin (Sigma) (1 μM) for C2C12 cells and metformin (Sigma) (1 µM) for H-4-11-E cells. Thereafter, the amount of glucose in the medium was evaluated using the glucose oxidase method, with absorbance recorded at 540 nm. The percentage of glucose utilized was calculated as the percentage change in absorbance in comparison to the untreated cells using Equation (2). (2) %Glucose utilized=100×∆AControl (untreated cells)−∆ASample (treated cells)/∆AControl (untreated cells)

C2C12 muscle cells = assay: Glucose utilization in C2C12 muscle cells; format: cell-based; settings: 250 µg/mL, 1 h, percentage of untreated control cells ± SEM
Procedure: as §1

[2] = rat intestinal α-glucosidase, sucrose substrate, mean ± SEM, read-out: IC50, α-glucosidase inhibitory activity (converted)

T1 sequence (P23739 whole entry): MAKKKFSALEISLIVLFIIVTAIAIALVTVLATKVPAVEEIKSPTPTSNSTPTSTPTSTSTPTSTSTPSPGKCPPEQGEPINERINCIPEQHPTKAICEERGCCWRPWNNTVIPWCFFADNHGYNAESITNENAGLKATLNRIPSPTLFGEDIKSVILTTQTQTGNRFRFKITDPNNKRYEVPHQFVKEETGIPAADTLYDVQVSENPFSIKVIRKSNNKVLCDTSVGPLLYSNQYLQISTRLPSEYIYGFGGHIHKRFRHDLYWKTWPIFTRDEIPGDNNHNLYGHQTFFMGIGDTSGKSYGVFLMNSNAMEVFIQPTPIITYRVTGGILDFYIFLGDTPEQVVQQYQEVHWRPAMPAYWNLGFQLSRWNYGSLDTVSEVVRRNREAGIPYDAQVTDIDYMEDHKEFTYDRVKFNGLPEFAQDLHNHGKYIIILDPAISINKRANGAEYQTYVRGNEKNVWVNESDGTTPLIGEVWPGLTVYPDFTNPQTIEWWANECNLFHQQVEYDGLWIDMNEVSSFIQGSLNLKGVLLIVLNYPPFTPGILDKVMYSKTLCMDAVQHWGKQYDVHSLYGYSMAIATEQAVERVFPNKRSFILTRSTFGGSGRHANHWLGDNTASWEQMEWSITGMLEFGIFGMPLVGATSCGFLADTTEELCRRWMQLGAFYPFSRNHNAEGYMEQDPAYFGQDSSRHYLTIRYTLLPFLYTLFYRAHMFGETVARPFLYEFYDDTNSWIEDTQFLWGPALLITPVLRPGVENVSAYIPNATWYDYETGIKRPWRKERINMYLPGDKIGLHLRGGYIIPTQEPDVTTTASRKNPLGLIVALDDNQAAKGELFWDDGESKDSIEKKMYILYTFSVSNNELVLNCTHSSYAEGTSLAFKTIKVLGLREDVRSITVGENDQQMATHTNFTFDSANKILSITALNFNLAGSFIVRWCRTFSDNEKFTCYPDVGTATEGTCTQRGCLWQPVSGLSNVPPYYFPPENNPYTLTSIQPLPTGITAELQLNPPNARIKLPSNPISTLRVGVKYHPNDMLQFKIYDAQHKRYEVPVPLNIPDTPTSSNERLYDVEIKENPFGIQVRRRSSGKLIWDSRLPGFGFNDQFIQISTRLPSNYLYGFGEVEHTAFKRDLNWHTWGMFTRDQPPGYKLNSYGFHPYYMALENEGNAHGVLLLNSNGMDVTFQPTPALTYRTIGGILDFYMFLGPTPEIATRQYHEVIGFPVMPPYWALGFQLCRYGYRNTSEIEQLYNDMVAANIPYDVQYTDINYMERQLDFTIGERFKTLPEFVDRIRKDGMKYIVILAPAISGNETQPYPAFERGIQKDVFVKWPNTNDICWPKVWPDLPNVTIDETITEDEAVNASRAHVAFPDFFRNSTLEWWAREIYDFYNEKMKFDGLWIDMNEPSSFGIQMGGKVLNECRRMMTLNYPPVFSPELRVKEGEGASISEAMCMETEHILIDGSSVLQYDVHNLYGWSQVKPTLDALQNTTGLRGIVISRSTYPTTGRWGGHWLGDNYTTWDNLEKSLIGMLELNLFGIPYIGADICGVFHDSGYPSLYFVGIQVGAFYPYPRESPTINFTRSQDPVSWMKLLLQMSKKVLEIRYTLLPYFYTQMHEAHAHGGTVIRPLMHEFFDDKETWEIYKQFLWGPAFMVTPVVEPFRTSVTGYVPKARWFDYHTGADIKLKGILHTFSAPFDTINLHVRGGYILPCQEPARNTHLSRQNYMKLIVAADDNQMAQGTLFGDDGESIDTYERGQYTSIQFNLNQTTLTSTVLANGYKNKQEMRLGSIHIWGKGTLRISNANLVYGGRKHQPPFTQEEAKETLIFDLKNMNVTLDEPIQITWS

Row | SMILES | IC50 [1, 2] [µM] | Glucose utilization in H-4-11-E liver cells (H-4-11-E rat liver cells) [%] | IC50 [1] [µM] | Glucose utilization in C2C12 muscle cells (C2C12 muscle cells) [%]
1 | Oc1cc(O)c2c(c1)O[C@H](c1ccc(O)c(O)c1)[C@H](O)C2 [Epicatechin, epicatechin] | 19.7 | 32.4 ± 1.5 |  | 
2 | CC(=O)OC1CCC2(C)C(CCC3(C)C2CC=C2C4C(C)C(C)CCC4(C)CCC23C)C1(C)C (stereo not drawn) [α-Amyrin acetate, α-amyrin acetate] | 716 |  |  | 
3 | C=C(C)[C@@H]1CC[C@]2(C)CC[C@]3(C)[C@H](CC[C@@H]4[C@@]5(C)CC[C@H](O)C(C)(C)[C@@H]5CC[C@]43C)[C@@H]12 [Lupeol, lupeol] |  |  | > 2340 | 
4 | Oc1ccc(C2Oc3cc(O)cc(O)c3CC2O)cc1 (centres unmarked) [Epiafzelechin, epiafzelechin] | 27.9 | 46.7 ± 1.2 |  | 33.35 ± 1.8
5 | CC[C@H](/C=C/[C@@H](C)[C@H]1CC[C@H]2[C@@H]3CC=C4C[C@@H](O)CC[C@]4(C)[C@H]3CC[C@]12C)C(C)C [Stigmasterol, stigmasterol] | 280 |  |  | 
